Assay results taken from article PMC3628851, “Combined Approaches for Drug Design Points the Way to Novel Proline Racemase Inhibitor Candidates to Fight Chagas’ Disease” (PLoS ONE, 2013).
pIC50, pKi: −log10 of the molar value. Like-named read-outs stand apart in the source and are kept apart here.

Key:
[1] = molecular target: T1, TcPRAC (Trypanosoma cruzi, UniProt Q4DA80); details: cited from earlier work
T1 construct: His tag (inferred from nickel IMAC purification); made in house; host or cells: E. coli BL21 (DE3)

[2] = Solubility (qualitative); format: physicochemical; details: for Solubility: solvent in which the compound is soluble, qualitative
[3] = molecular target: T1, TcPRAC; test: Kinetics of D-proline formation with time / enzyme inactivation (polarimetry); format: biochemical; details: for mode of TcPRAC inhibition: pre-incubation 5 or 10 min, 15 fold dilution, 300 mM L-proline
Experimental: Kinetic reaction assays using fixed amounts of dimeric PRAC (22 µg –0.24 µM final), 40 mM substrate and 10 µM of the identified inhibitors were performed to characterize their effect on enzymatic activity (Figure 5). […] To further characterize the mode of action of this two molecules, the enzyme was pre-incubated (concentration 22 µg − 3,6 µM) with different concentration of inhibitor, for 5 or 10 min to determine inhibition dependence to inhibitor concentration and pre-incubation time. Then, the reaction mixture was diluted 15 fold and residual activity was determined in an excess of substrate (300 mM of L- proline).
Figure 5 Kinetics of D-proline formation with time in the presence or absence of TcPRAC inhibitors. (A) Concentrations of D-proline formed were determined by polarimetry in reaction assays containing 0.15 µM of TcPRAC and 40 mM L proline (see Material and Methods).

[4] = molecular target: T1, TcPRAC; test: Inhibition of TcPRAC proline racemization measured by polarimetry; format: biochemical
Experimental: (§1) Optimum Proline racemization conditions for TcPRAC were determined using 10–300 mM L-Proline in 0.2 M NaOAc over a range of pH values, as described and L- to D- proline conversion took place in 1.5 mL reaction. Concentrations of D-proline formed were determined by optical rotation of the solution at 365 nm in a 10 cm optical path cell, thermostated at 37°C, using a polarimeter (Perkin Elmer 241 MC). Assays were also performed into microtiter plates (100 µL), as follows: dilutions of L- Proline (40 mM to 2.5 mM) in 0.2 M sodium acetate pH 6.0 and 0.25 mM TcPRAC were loaded into microtiter plate wells with 0–20 µM PYC or similar concentrations of potential inhibitors. Controls omitted TcPRAC and/or PYC. The microtiter plates were incubated for 30 minutes at 37°C. The enzyme was inactivated by heating in a microwave oven for 15 s at 900 Watts and shifting the pH to 8.3 by adding 6.8 µL of 0.235 M sodium pyrophosphate. The presence of D-Proline was tested in 50 µL from each well using the D-amino oxidase - Horse Radish Peroxidase/OPD combined test. Interference caused by the possible reactivity of amino acid L-forms with DAAOx was taken into account by using standards consisting of serial dilutions of an equimolar mixture of D- and L-proline ranging from 0 to 10 mM (10 mM total). For instance, DAAOx reacts with L-Proline 300 times slower than with D-Proline. Optical densities, OD490 nm – OD650 nm were recorded on a microtiter plate reader (Molecular Devices), and the signals from the blank control wells were deducted.
(§2) Only two novel TcPRAC inhibitors, both provided by the CN, were identified among these (Figure 4B).

[5] = test system: T. cruzi; test: Vero cell infection by T. cruzi, total parasite numbers/culture by capture ELISA; format: cell-based, Trypanosoma cruzi
Experimental: (§3) Cell culture-derived trypomastigotes from T. cruzi CL Brener (clone F11-F5) were isolated from the supernatant of bulk cultures of green monkey Vero kidney cells previously infected with bloodstream trypomastigotes. Known numbers of parasites, adherent infected cells and uninfected cell controls were lysed with 0.1 mL of 0.05% Tween 20 solution in sterile distilled water and the lysates were frozen. Vero cells were seeded in LabTek slides (5×10^4 cells/well) in RPMI 1640 medium/5% FCS and kept at 37°C, 5% CO2. […] To test the effect of the inhibitors on the parasite intracellular cycle, cultures were infected at 37°C for 17 hours without inhibitors, washed three times to eliminate extracellular parasites then incubated for up to 48 hours with fresh medium containing different dilutions of the compounds. All cultures were then washed with PBS, fixed and stained with Giemsa. The number of infected host cells was recorded along with the number of parasites per infected cell in at least 400 host cells, in duplicate experiments. Results were expressed as the endocytic index (EI) resulting from the product of the percentage of infected cells and the mean number of parasites per infected cell. Control cultures were incubated in medium alone or with equal DMSO concentrations.
Flat-bottomed microtiter plates (Nunc, Denmark) were coated overnight at 4°C with rabbit anti-T. cruzi polyclonal antibodies and further blocked for 4 h at room temperature (RT) with 1% BSA, 0.05% Tween 20 in PBS. After washings, lysate samples from infected or control Vero cultures, or from T. cruzi, were then added and incubated at 4°C for 18 h. Plates were washed with PBS-Tween and incubated for 2 h at RT with polyclonal mouse anti-T. cruzi chronic serum, washed again and incubated for 1 h at RT with HRP-secondary antibodies. […] Optical densities were determined in a spectrophotometer at 450 nm and 650 nm, and analyzed by Softmax Pro software.
(§4) To verify the potential of these new PRAC inhibitors as lead compounds in drug design strategies, we compared their effects on cultures of host Vero cells infected or not with T. cruzi, with that of PYC. […] To determine whether the treatment of these cultures with the new compounds would indeed affect intracellular TcPRAC and as such interfere with parasite intracellular fate cells were then washed after parasite uptake and the same ligand concentrations as above (10 µM − 30 µM) were added to the cultures in fresh medium. The degree of infection was determined over 48 hours by capture ELISA. As expected, the number of parasites per well decreased in a dose-dependent manner (Figure 7). In vitro and in vivo experiments using mutant parasites that carry the luciferase gene are now in progress to support those data.
Total parasite numbers/culture were estimated by capture ELISA.

[6] = molecular target: T1, TcPRAC; test: DAAOx test of D-proline formed by TcPRAC; format: biochemical; details: for D-Proline formed: inhibitor 10 µM, without inhibitor 5.0 µM
Experimental: as §1, §2

[7] = test system: T. cruzi; test: Vero cell infection by T. cruzi trypomastigotes, endocytic index (Giemsa count); format: cell-based, Trypanosoma cruzi; details: for Endocytic index (EI): added with parasites, 17 h, Vero cells
Experimental: as §3, with “cultures were infected at 37°C for 17 hours without inhibitors, washed three times to eliminate extracellular parasites then incubated for up to 48 hours with fresh medium containing” left out
as §4

[8] = molecular target: T1, TcPRAC; test: TcPRAC inhibition by PYC derivatives (polarimetry and DAAO methodologies); format: biochemical; details: for pKi: Ki
Experimental: Recombinant Trypanosoma cruzi proline racemase (EC 5.1.1.4) was produced in E. Coli BL21 (DE3) (Invitrogen) and purified by immobilized metal affinity chromatography on nickel columns, as previously described.
as §1

[9] = test system: non infected Vero cells; test: Viability of non infected Vero cells; format: cell-based, green monkey; details: 3, 10 and 30 µM
Experimental: Cell culture-derived trypomastigotes from T. cruzi CL Brener (clone F11-F5) were isolated from the supernatant of bulk cultures of green monkey Vero kidney cells previously infected with bloodstream trypomastigotes. Known numbers of parasites, adherent infected cells and uninfected cell controls were lysed with 0.1 mL of 0.05% Tween 20 solution in sterile distilled water and the lysates were frozen. Vero cells were seeded in LabTek slides (5×10^4 cells/well) in RPMI 1640 medium/5% FCS and kept at 37°C, 5% CO2. […] The number of infected host cells was recorded along with the number of parasites per infected cell in at least 400 host cells, in duplicate experiments. Results were expressed as the endocytic index (EI) resulting from the product of the percentage of infected cells and the mean number of parasites per infected cell. […]
To verify the potential of these new PRAC inhibitors as lead compounds in drug design strategies, we compared their effects on cultures of host Vero cells infected or not with T. cruzi, with that of PYC. […] The degree of infection was determined over 48 hours by capture ELISA. […]

[10] = 10 µM inhibitor, 40 mM substrate, 0.24 µM PRAC
[11] = read-out: Racemization Inhibition
[12] = classical Michaelian approaches

T1 sequence (Q4DA80 32-423): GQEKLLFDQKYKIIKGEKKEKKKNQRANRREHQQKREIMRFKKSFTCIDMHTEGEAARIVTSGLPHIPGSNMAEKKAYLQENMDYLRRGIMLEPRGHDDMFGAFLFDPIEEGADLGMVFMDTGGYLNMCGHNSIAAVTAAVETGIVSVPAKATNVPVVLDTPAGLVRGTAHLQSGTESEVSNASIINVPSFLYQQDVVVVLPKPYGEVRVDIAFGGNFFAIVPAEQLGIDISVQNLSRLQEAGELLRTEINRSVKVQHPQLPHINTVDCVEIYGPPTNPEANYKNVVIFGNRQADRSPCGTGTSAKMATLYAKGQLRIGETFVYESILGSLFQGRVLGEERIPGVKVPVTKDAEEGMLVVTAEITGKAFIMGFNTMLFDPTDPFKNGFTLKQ

## O=C(O)c1ccc[nH]1 [PYC, 2-pyrrolecarboxylic acid, reference compound]
[1]
  mode of TcPRAC inhibition: classical competitive and reversible
[2]
  solubility in water: water-insoluble
  Solubility: Ethanol
[3]; [10]
  racemization speed of L-proline, % of original speed: ~37%
[4]
  pIC50: 5.00
[4]; [11]
  inhibition at 10 µM: 56.9%
[5]; 10 µM
  percentage in Figure 7 (effect on total parasite numbers/culture, capture ELISA): 4%
[5]; 100 µM
  percentage in Figure 7 (effect on total parasite numbers/culture, capture ELISA): 2%
[5]; 1 mM
  percentage in Figure 7 (effect on total parasite numbers/culture, capture ELISA): 0%
[6]
  D-Proline formed: 2.4 µM (IC50)
[7]; inhibitor 10 µM
  Endocytic index (EI): 44
[7]; inhibitor 100 µM
  Endocytic index (EI): 30
[7]; inhibitor 1000 µM
  Endocytic index (EI): 25
[8]; [12]
  pKi: 5.00 to 5.22

## O=C(O)c1n[nH]cc1Br [Br-PZC, 4-bromo-1H-pyrazole-3-carboxylic acid]
[2]
  Solubility: Water
[8]; [12]
  pKi: 3.00
[8]; values in text
  pKi: ~3.00

## O=C(O)/C=C/C(=O)CBr [Br-OxoPA, (E)-5-bromo-4-oxopent-2-enoic acid]
[2]
  solubility in water: soluble
[3]; [10]
  time at which plateau of enzyme inactivation is reached: 250 s
[3]
  mode of TcPRAC inhibition: irreversible
[4]
  pIC50: 5.60
[4]; [11]
  inhibition at 2.5 µM: 50%
  inhibition at 10 µM: 81.3%
[5]; 5 µM
  percentage in Figure 7 (effect on total parasite numbers/culture, capture ELISA): 24%
[5]; 10 µM
  percentage in Figure 7 (effect on total parasite numbers/culture, capture ELISA): 34%
[5]; 30 µM
  percentage in Figure 7 (effect on total parasite numbers/culture, capture ELISA): 39%
[6]; equivalent concentrations, DAAOx test
  inhibition of conversion of L- into D-proline relative to PYC: more than 5 times
[6]
  D-Proline formed: <0.3 µM
[7]; 1000 µM PYC equivalent to 10 µM OxoPA or 30 µM Br-OxoPA
  lower dose than PYC necessary to obtain the same endocytic index: 30 fold
[7]; inhibitor 3 µM
  Endocytic index (EI): 78
[7]; inhibitor 10 µM
  Endocytic index (EI): 42
[7]; inhibitor 30 µM
  Endocytic index (EI): 29
[9]
  viability of non infected Vero cells: neither OxoPA nor Br-OxoPA considerably affected the viability
[8]
  more potent than PYC in inhibiting TcPRAC: 4 fold

## CC(=O)/C=C/C(=O)O [OxoPA, (E)-4-oxopent-2-enoic acid]
[3]; [10]
  time at which plateau of enzyme inactivation is reached: 350 s
[3]
  mode of TcPRAC inhibition: irreversible
[4]
  pIC50: 5.52
[4]; [11]
  inhibition at 3 µM: 50%
[5]; 5 µM
  percentage in Figure 7 (effect on total parasite numbers/culture, capture ELISA): 9%
[5]; 10 µM
  percentage in Figure 7 (effect on total parasite numbers/culture, capture ELISA): 14%
[5]; 30 µM
  percentage in Figure 7 (effect on total parasite numbers/culture, capture ELISA): 15%
[6]
  D-Proline formed: <0.3 µM
[9]
  viability of non infected Vero cells: neither OxoPA nor Br-OxoPA considerably affected the viability
[8]
  more potent than PYC in inhibiting TcPRAC: 2 fold

## CCc1c[nH]nc1C(=O)O [Et-PZC, 4-Ethyl-pyrazole-3-carboxylic acid]
[2]
  Solubility: Water
[8]; [12]
  pKi: < 2.70

## O=C(O)c1n[nH]cc1Cl [Cl-PZC, 4-chloro-1H-pyrazole-3-carboxylic acid]
[2]
  Solubility: Water
[8]; [12]
  pKi: 3.52
[8]; values in text
  pKi: ~3.52

## O=C(O)c1cc[nH]n1 [PZC, 1H-pyrazole-3-carboxylic acid]
[2]
  Solubility: Water
[8]; [12]
  pKi: < 2.70

## Cc1[nH]nc(C(=O)O)c1Cl [M-Cl-PZC, 4-chloro-5-methyl-1H-pyrazole-3-carboxylic acid]
[2]
  Solubility: Ethanol
[8]; [12]
  pKi: < 2.70
